Reference: patent publication US7872018B2, “Compounds and methods for kinase modulation, and indications therefor” (Plexxikon, Inc., priority 2006, dated 2011)

Columns and labels:
[1] = target: c-Raf-1 (Homo sapiens, UniProt P04049); test: c-Raf-1 kinase activity assay; type: biochemical; conditions: under the test conditions employed; read-out: IC50 toward kinase c-Raf-1
[2] = target: Fak (Homo sapiens, UniProt Q05397); test: Fak kinase activity assay; type: biochemical; conditions: under the test conditions employed; read-out: IC50 toward kinase Fak
[3] = target: B-Raf (Homo sapiens, UniProt P15056); test: B-Raf kinase activity assay; type: biochemical; conditions: under the test conditions employed; read-out: IC50 toward kinase B-Raf
[4] = target: B-Raf V600E (Homo sapiens, UniProt P15056, V600E); test: B-Raf V600E kinase activity assay; type: biochemical; conditions: under the test conditions employed; read-out: IC50 toward kinase B-Raf V600E
[5] = target: Src (Homo sapiens, UniProt P12931); test: Src kinase activity assay; type: biochemical; conditions: under the test conditions employed; read-out: IC50 toward kinase Src
[6] = target: T1, Fms (Homo sapiens, UniProt P07333); test: Fms biochemical assay (AlphaScreen or 33P-ATP); conditions: under the test conditions employed; read-out: IC50 toward kinase Fms
T1 construct: purchased Upstate Biotech 14-551
Description: Each sample was at 5% DMSO.

[7] = target: T2, Kit (Homo sapiens, UniProt P10721); test: c-kit biochemical assay (AlphaScreen or 33P-ATP); conditions: under the test conditions employed; read-out: IC50 toward kinase Kit
T2 construct: P1332.N6 BI PTP KIT M552-K948-X COD; made in house; host or cells: E. coli BL21(DE3)RIL, co-expressed with PTP1B
In short: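 Kinase activity read by AlphaScreen or 33P-ATP incorporation, with c-kit enzyme at 1 ng per sample. The enzyme was either commercial or a recombinant human kit construct made from a gene-synthesized coding sequence.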

[8] = target: Flt1 (Homo sapiens, UniProt P17948); test: Flt1 kinase activity assay; type: biochemical; conditions: under the test conditions employed; read-out: IC50 toward kinase Flt1
[9] = target: FGFR (Homo sapiens, UniProt P11362); test: FGFR kinase activity assay; type: biochemical; conditions: under the test conditions employed; read-out: IC50 toward kinase FGFR
[10] = target: HGK (Homo sapiens, UniProt O95819); test: HGK (MAP4K4) biochemical assay (AlphaScreen); conditions: under the test conditions employed; read-out: IC50 toward kinase HGK
In short: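 AlphaScreen kinase assay with 0.5 ng MAP4K4 per sample and 10 nM biotin-ERM substrate, reacted 40 min at room temperature. Stopped with EDTA buffer containing phospho-ERM antibody (1:1000) plus donor and protein A acceptor beads (1 μg/ml final); signal tracks substrate phosphorylation.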

[11] = target: Kdr (Homo sapiens, UniProt P35968); test: Kdr kinase activity assay; type: biochemical; conditions: under the test conditions employed; read-out: IC50 toward kinase Kdr
[12] = target: T3, TrkA (Homo sapiens, UniProt P04629); test: TrkA biochemical assay (AlphaScreen); conditions: under the test conditions employed; read-out: IC50 toward kinase TrkA
T3 construct: purchased Upstate Biotech 14-571
Description: Compounds tested were dissolved in DMSO (1 μL) and added to a white 384-well plate (Costar #3705). […] Each sample was at 5% DMSO. The plate was then incubated for 40 minutes at room temperature.

[13] = target: Btk (Homo sapiens, UniProt Q06187); test: Btk kinase activity assay; type: biochemical; conditions: under the test conditions employed; read-out: IC50 toward kinase Btk
[14] = target: B-Raf V600E/T529I (Homo sapiens, UniProt P15056, T529I/V600E); test: B-Raf V600E/T529I kinase activity assay; type: biochemical; conditions: under the test conditions employed; read-out: IC50 toward kinase B-Raf V600E/T529I
Chain of B-Raf V600E/T529I (P15056 whole entry T529I/V600E): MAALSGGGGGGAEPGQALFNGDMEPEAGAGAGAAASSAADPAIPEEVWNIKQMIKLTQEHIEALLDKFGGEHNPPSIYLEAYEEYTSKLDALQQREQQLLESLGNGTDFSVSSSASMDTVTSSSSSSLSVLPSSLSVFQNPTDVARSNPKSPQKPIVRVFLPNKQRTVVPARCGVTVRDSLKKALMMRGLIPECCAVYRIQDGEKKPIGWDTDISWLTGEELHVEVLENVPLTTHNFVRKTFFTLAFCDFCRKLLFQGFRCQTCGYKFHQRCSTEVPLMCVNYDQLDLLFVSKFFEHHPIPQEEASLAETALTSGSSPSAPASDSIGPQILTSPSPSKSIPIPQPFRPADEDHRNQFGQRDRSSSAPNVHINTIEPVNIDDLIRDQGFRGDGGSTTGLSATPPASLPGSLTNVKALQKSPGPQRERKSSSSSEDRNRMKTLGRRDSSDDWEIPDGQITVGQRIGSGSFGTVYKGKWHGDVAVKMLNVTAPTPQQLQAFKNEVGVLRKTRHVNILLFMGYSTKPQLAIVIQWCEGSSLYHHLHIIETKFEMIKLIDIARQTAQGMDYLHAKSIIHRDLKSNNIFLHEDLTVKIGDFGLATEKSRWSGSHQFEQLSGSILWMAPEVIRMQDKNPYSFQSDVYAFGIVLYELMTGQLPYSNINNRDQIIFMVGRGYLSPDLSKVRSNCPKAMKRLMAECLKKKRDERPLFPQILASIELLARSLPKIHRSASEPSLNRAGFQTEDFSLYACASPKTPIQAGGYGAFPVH

Chain of B-Raf (P15056 whole entry): as the sequence (P15056 whole entry T529I/V600E) above, with I529T, E600V counted along it
T1 sequence (P07333 20-972): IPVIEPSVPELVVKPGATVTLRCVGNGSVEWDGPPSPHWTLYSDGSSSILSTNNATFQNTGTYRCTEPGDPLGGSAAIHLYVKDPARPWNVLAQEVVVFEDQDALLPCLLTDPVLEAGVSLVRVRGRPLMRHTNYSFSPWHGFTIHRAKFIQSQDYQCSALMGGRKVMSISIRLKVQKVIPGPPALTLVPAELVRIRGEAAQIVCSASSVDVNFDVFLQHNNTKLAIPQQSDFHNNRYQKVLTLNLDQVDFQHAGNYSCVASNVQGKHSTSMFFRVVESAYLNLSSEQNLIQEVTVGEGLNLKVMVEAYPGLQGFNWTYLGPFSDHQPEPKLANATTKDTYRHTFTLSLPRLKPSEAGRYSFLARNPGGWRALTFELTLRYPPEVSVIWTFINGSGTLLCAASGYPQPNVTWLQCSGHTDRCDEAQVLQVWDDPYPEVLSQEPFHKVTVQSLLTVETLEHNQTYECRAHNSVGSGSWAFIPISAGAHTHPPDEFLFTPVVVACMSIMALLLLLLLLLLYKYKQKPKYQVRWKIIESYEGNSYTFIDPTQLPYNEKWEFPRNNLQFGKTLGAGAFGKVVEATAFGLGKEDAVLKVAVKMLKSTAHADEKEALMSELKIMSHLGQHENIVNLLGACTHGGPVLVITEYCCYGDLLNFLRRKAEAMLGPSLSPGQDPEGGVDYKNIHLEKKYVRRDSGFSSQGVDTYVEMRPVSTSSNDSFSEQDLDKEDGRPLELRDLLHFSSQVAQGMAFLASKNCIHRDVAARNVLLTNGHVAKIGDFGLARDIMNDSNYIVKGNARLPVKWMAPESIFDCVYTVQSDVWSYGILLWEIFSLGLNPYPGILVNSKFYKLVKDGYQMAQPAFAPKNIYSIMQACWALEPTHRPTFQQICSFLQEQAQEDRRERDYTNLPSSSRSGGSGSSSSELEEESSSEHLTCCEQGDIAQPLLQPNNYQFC
Chain of Src (P12931 whole entry): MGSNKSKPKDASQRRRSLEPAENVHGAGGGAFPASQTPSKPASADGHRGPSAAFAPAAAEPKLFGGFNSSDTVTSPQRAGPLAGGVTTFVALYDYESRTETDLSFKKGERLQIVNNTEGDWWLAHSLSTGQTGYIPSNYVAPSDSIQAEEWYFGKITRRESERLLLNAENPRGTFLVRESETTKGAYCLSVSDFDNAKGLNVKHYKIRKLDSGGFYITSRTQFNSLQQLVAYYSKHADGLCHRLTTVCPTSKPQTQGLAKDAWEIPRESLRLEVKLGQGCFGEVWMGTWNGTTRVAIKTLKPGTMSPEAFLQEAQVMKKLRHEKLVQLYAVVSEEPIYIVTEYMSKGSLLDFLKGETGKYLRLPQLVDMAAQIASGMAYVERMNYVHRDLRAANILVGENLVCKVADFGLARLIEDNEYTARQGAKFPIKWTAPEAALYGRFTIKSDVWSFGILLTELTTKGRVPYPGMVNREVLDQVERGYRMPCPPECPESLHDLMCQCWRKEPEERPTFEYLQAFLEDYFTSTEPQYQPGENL
Chain of HGK (O95819 whole entry): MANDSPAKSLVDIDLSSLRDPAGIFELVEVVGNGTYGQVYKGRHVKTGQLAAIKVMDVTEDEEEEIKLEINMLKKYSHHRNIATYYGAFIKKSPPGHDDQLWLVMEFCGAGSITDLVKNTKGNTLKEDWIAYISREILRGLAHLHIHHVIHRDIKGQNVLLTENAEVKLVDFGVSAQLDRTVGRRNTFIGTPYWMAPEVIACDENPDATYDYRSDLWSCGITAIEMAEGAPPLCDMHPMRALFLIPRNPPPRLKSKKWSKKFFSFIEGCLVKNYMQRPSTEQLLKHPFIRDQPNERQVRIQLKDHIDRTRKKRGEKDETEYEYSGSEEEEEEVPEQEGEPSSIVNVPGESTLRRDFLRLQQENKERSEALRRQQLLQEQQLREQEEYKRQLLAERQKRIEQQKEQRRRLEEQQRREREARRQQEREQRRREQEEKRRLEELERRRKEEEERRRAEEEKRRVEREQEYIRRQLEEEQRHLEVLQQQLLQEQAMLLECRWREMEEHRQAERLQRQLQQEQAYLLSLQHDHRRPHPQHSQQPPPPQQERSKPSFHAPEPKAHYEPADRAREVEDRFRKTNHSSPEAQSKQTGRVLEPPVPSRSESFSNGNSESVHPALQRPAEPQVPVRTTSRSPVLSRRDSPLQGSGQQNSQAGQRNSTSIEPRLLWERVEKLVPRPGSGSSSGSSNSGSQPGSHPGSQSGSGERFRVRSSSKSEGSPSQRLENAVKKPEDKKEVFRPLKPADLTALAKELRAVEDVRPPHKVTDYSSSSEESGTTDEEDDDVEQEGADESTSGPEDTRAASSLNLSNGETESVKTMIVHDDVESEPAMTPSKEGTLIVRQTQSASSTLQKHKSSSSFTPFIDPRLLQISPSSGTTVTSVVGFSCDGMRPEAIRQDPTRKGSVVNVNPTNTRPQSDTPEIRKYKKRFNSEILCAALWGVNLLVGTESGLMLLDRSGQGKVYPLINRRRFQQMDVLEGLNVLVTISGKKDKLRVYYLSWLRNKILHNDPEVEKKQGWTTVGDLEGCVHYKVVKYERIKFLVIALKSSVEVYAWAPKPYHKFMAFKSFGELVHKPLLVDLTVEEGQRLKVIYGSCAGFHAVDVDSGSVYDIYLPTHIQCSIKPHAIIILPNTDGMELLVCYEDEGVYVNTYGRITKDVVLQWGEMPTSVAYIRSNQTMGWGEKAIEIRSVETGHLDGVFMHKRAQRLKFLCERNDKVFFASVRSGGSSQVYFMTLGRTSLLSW
Chain of Kdr (P35968 20-1356): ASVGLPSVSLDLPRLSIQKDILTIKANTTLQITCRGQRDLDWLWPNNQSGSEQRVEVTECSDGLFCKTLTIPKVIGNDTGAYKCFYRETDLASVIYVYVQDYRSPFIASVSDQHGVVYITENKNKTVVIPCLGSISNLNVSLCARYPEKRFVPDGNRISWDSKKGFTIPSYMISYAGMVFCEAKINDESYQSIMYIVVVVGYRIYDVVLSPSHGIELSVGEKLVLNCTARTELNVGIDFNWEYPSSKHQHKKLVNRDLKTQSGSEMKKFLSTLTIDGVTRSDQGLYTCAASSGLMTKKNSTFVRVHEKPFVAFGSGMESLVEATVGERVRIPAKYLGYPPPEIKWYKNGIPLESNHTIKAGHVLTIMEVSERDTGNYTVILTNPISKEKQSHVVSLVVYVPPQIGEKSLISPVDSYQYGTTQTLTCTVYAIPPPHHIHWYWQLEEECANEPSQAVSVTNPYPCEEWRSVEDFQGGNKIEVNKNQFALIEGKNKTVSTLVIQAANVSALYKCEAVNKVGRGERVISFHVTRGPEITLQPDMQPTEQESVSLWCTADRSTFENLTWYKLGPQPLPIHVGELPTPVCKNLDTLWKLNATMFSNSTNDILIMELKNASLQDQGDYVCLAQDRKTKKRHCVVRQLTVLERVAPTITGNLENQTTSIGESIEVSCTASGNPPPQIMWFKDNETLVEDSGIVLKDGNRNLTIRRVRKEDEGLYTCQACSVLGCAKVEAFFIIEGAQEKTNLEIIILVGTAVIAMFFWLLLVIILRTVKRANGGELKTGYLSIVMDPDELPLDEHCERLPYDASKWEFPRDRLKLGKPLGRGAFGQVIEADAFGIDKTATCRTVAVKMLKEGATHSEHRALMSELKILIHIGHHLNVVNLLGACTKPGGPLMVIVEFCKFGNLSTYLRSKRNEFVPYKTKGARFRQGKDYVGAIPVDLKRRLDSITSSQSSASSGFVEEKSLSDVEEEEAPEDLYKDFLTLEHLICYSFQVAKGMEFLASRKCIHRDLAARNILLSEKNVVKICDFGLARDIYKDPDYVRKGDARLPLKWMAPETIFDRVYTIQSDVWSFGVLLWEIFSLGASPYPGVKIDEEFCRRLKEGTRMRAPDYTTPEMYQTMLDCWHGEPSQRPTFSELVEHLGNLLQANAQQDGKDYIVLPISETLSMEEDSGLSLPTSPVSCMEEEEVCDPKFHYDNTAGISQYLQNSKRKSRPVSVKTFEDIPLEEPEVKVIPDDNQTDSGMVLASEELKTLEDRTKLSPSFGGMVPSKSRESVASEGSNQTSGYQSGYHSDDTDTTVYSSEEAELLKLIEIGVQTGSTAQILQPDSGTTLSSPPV
Chain of B-Raf V600E (P15056 whole entry V600E): as the sequence (P15056 whole entry T529I/V600E) above, with I529T counted along it

SMILES | IC50 [1] | IC50 [2] | IC50 [3] | IC50 [4] | IC50 [5] | IC50 [6] | IC50 [7] | IC50 [8] | IC50 [9] | IC50 [10] | IC50 [11] | IC50 [12] | IC50 [13] | IC50 [14]
Cn1cc(-c2cnc3[nH]cc(Cc4cc(F)c(OCc5nc6ccccc6[nH]5)cc4F)c3c2)cn1 [P-2108, 2-{2,5-Difluoro-4-[5-(1-methyl-1H-pyrazol-4-yl)-1H-pyrrolo[2,3-b]pyridin-3-ylmethyl]-phenoxymethyl}-1H-benzoimidazole] |  |  |  |  | ≤ 10 µM | ≤ 10 µM | ≤ 10 µM | ≤ 10 µM |  |  | ≤ 10 µM | ≤ 10 µM |  | 
Cn1cc(-c2cnc3[nH]cc(Cc4cc(F)c(OCc5nc6ccccc6[nH]5)cc4Cl)c3c2)cn1 [P-2109, 2-{5-Chloro-2-fluoro-4-[5-(1-methyl-1H-pyrazol-4-yl)-1H-pyrrolo[2,3-b]pyridin-3-ylmethyl]-phenoxymethyl}-1H-benzoimidazole] |  |  |  |  | ≤ 10 µM | ≤ 10 µM | ≤ 10 µM | ≤ 10 µM |  | ≤ 10 µM | ≤ 10 µM | ≤ 10 µM |  | 
Cn1cc(-c2cnc3[nH]cc(Cc4cc(Cl)c(OCc5nc6ccccc6[nH]5)cc4F)c3c2)cn1 [P-2117, 2-{2-Chloro-5-fluoro-4-[5-(1-methyl-1H-pyrazol-4-yl)-1H-pyrrolo[2,3-b]pyridin-3-ylmethyl]-phenoxymethyl}-1H-benzoimidazole] |  |  |  |  | ≤ 10 µM | ≤ 10 µM | ≤ 10 µM | ≤ 10 µM |  |  | ≤ 10 µM | ≤ 10 µM |  | 
CCOc1c(OCc2ccc(N(CC)CC)nc2)cccc1C(=O)c1c[nH]c2ncccc12 [P-2143, [3-(6-Diethylamino-pyridin-3-ylmethoxy)-2-ethoxy-phenyl]-(1H-pyrrolo[2,3-b]pyridin-3-yl)-methanone] | ≤ 10 µM |  |  |  |  | ≤ 10 µM |  |  |  |  |  |  | ≤ 10 µM | 
CCOc1c(OCc2ccc(N3CCCC3)nc2)cccc1C(=O)c1c[nH]c2ncccc12 [P-2144, [2-Ethoxy-3-(6-pyrrolidin-1-yl-pyridin-3-ylmethoxy)-phenyl]-(1H-pyrrolo[2,3-b]pyridin-3-yl)-methanone] |  |  | ≤ 10 µM |  |  | ≤ 10 µM |  |  |  |  |  |  | ≤ 10 µM | 
Cn1cc(-c2cnc3[nH]cc(C(=O)c4c(F)ccc(OCC(F)(F)F)c4Cl)c3c2)cn1 [P-2145, [2-Chloro-6-fluoro-3-(2,2,2-trifluoro-ethoxy)-phenyl]-[5-(1-methyl-1H-pyrazol-4-yl)-1H-pyrrolo[2,3-b]pyridin-3-yl]-methanone] |  |  | ≤ 10 µM |  | ≤ 10 µM | ≤ 10 µM | ≤ 10 µM | ≤ 10 µM |  |  | ≤ 10 µM | ≤ 10 µM | ≤ 10 µM | 
Cn1cc(-c2cnc3[nH]cc(Cc4c(Cl)ccc(OCC(F)(F)F)c4Cl)c3c2)cn1 [P-2152, 3-[2,6-Dichloro-3-(2,2,2-trifluoro-ethoxy)-benzyl]-5-(1-methyl-1H-pyrazol-4-yl)-1H-pyrrolo[2,3-b]pyridine] |  |  |  |  |  | ≤ 10 µM |  |  |  |  | ≤ 10 µM |  |  | ≤ 10 µM
COCCOCCOc1cc(Cl)c(Cc2c[nH]c3ncc(Cl)cc23)cc1F [P-2155, 5-chloro-3-2-chloro-5-fluoro-4-[2-(2-methoxy-ethoxy)-ethoxy]-benzyl-1H-pyrrolo[2,3-b]pyridine] | ≤ 10 µM |  |  |  |  | ≤ 10 µM |  |  | ≤ 10 µM |  | ≤ 10 µM |  |  | 
Fc1cc(Cc2c[nH]c3ncc(Cl)cc23)c(Cl)cc1OCc1cccnc1 [P-2156, 5-Chloro-3-[2-chloro-5-fluoro-4-(pyridin-3-ylmethoxy)-benzyl]-1H-pyrrolo[2,3-b]pyridine] |  |  |  |  |  | ≤ 10 µM | ≤ 10 µM |  |  |  | ≤ 10 µM |  |  | ≤ 10 µM
Cn1cc(-c2cnc3[nH]cc(Cc4cc(F)c(O)cc4F)c3c2)cn1 [P-2161, 2,5-difluoro-4-[5-(1-methyl-1H-pyrazol-4-yl)-1H-pyrrolo[2,3-b]pyridin-3-ylmethyl]-phenol] |  |  |  |  |  | ≤ 10 µM | ≤ 10 µM | ≤ 10 µM |  |  | ≤ 10 µM |  | ≤ 10 µM | 
Cc1nc(COc2ccc(F)c(C(=O)c3c[nH]c4ncc(Cl)cc34)c2F)c(C)o1 [P-2164, (5-Chloro-1H-pyrrolo[2,3-b]pyridin-3-yl)-[3-(2,5-dimethyl-oxazol-4-ylmethoxy)-2,6-difluoro-phenyl]-methanone] |  |  | ≤ 10 µM | ≤ 10 µM |  | ≤ 10 µM | ≤ 10 µM | ≤ 10 µM |  |  | ≤ 10 µM |  | ≤ 10 µM | 
COc1cc(Cc2c[nH]c3ncccc23)c(Cl)cc1OCc1ccc(Cl)cc1F [P-2166, 3-[2-chloro-4-(4-chloro-2-fluoro-benzyloxy)-5-methoxy-benzyl]-1H-pyrrolo[2,3-b]pyridine] |  |  |  |  |  | ≤ 10 µM |  |  |  |  | ≤ 10 µM |  |  | ≤ 10 µM
COc1cc(Cc2c[nH]c3ncc(Br)cc23)c(F)cc1OCc1nc2ccccc2[nH]1 [P-2181, 2-[4-(5-Bromo-1H-pyrrolo[2,3-b]pyridin-3-ylmethyl)-5-fluoro-2-methoxy-phenoxymethyl]-1H-benzoimidazole] |  | ≤ 10 µM |  |  |  | ≤ 10 µM |  |  |  | ≤ 10 µM |  | ≤ 10 µM |  | 
N#Cc1cnc2[nH]cc(Cc3cc(F)c(OCc4nc5ccccc5[nH]4)cc3F)c2c1 [P-2185, 3-[4-(1H-Benzoimidazol-2-ylmethoxy)-2,5-difluoro-benzyl]-1H-pyrrolo[2,3-b]pyridine-5-carbonitrile] | ≤ 10 µM |  | ≤ 10 µM | ≤ 10 µM |  | ≤ 10 µM | ≤ 10 µM | ≤ 10 µM |  | ≤ 10 µM | ≤ 10 µM | ≤ 10 µM |  | 

Results, then the compound that gave them:

IC50 [1] | IC50 [2] | IC50 [3] | IC50 [4] | IC50 [5] | IC50 [6] | IC50 [7] | IC50 [8] | IC50 [9] | IC50 [10] | IC50 [11] | IC50 [12] | IC50 [13] | IC50 [14] | SMILES
≤ 10 µM | ≤ 10 µM | ≤ 10 µM | ≤ 10 µM | ≤ 10 µM | ≤ 10 µM | ≤ 10 µM | ≤ 10 µM |  |  |  |  |  |  | COc1cc(Cc2c[nH]c3ncccc23)ccc1OCc1ccc(Cl)cc1 [P-1247, 3-(4-(4-chlorobenzyloxy)-3-methoxybenzyl)-1H-pyrrolo[2,3-b]pyridine]
 | ≤ 10 µM |  | ≤ 10 µM |  | ≤ 10 µM | ≤ 10 µM |  |  |  |  |  |  |  | Clc1ccc(COc2ccc(Cc3c[nH]c4ncccc34)cc2Cl)cc1 [P-1449, 3-[3-chloro-4-(4-chloro-benzyloxy)-benzyl]-1H-pyrrolo[2,3-b]pyridine]
 | ≤ 10 µM |  | ≤ 10 µM |  | ≤ 10 µM | ≤ 10 µM |  |  |  |  |  |  |  | COc1cc(OCc2ccc(Cl)cc2)ccc1Cc1c[nH]c2ncccc12 [P-1450, 3-[4-(4-chloro-benzyloxy)-2-methoxy-benzyl]-1H-pyrrolo[2,3-b]pyridine]
≤ 10 µM | ≤ 10 µM | ≤ 10 µM | ≤ 10 µM |  | ≤ 10 µM | ≤ 10 µM |  | ≤ 10 µM |  |  |  |  |  | COCCOc1ccc(F)c(C(=O)c2c[nH]c3ncc(Br)cc23)c1F [P-1453, (5-Bromo-1H-pyrrolo[2,3-b]pyridin-3-yl)-[2,6-difluoro-3-(2-methoxy-ethoxy)-phenyl]-methanone]
≤ 10 µM |  | ≤ 10 µM | ≤ 10 µM |  | ≤ 10 µM | ≤ 10 µM |  | ≤ 10 µM |  |  |  |  |  | COCCOc1ccc(F)c(Cc2c[nH]c3ncc(Br)cc23)c1F [P-1454, 5-Bromo-3-[2,6-difluoro-3-(2-methoxy-ethoxy)-benzyl]1H-pyrrolo[2,3-b]pyridine]
≤ 10 µM | ≤ 10 µM | ≤ 10 µM | ≤ 10 µM |  | ≤ 10 µM | ≤ 10 µM |  | ≤ 10 µM |  |  |  |  |  | Fc1ccc(OCc2ccccc2)c(F)c1Cc1c[nH]c2ncc(-c3cccnc3)cc12 [P-1455, 3-(3-Benzyloxy-2,6-difluoro-benzyl)-5-pyridin-3-yl-1H-pyrrolo[2,3-b]pyridine]
≤ 10 µM |  |  |  |  | ≤ 10 µM | ≤ 10 µM | ≤ 10 µM |  | ≤ 10 µM | ≤ 10 µM | ≤ 10 µM |  |  | Fc1cc(OCc2nc3ccccc3[nH]2)c(F)cc1Cc1c[nH]c2ncc(Br)cc12 [P-2107, 2-[4-(5-Bromo-1H-pyrrolo[2,3-b]pyridin-3-ylmethyl)-2,5-difluoro-phenoxymethyl]-1H-benzoimidazole]
